Data: PubChem BioAssay (NCI)
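Cultured in 96-well plates, cells were exposed to test compound for 48 hours across five concentrations. TGI marks complete inhibition of growth.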 Where a SMILES comes first, the peptide text is derived from it. [ ]: non-standard residue; d: D form. The star is where a group is joined. ξ: configuration not given here. ξD = NC(CC(=O)O)C(=O)O; Ac3c = NC1(C(=O)O)CC1; Boc = CC(C)(C)OC(=O)*; OBn = c1ccc(CO*)cc1

How the values were obtained:
Experiment in all cases: growth of human tumour cells (NCI), 48 h
RPMI-8226 leukemia = test system: RPMI-8226 leukemia
CCRF-CEM leukemia = test system: CCRF-CEM leukemia
OVCAR-8 ovarian = test system: OVCAR-8 ovarian
EKVX NSCLC = test system: EKVX NSCLC
NCI-H460 lung = test system: NCI-H460 lung
NCI-H522 lung = test system: NCI-H522 lung
COLO 205 colon = test system: COLO 205 colon
SF-295 CNS = test system: SF-295 CNS
M14 melanoma = test system: M14 melanoma
TK-10 renal = test system: TK-10 renal

| SMILES | TGI (RPMI-8226 leukemia) [µM] | TGI (CCRF-CEM leukemia) [µM] | TGI (OVCAR-8 ovarian) [µM] | TGI (EKVX NSCLC) [µM] | TGI (NCI-H460 lung) [µM] | TGI (NCI-H522 lung) [µM] | TGI (COLO 205 colon) [µM] | TGI (SF-295 CNS) [µM] | TGI (M14 melanoma) [µM] | TGI (TK-10 renal) [µM] |
| --- | --- | --- | --- | --- | --- | --- | --- | --- | --- | --- |
| N#CC(C#N)=Cc1c(O)ccc2ccccc12 | 38.6 | 5.17 | 36.4 | 26.3 | 36.7 | 29.2 | 44.5 | 29.5 | 28.3 | 32.2 |
| COc1ccc(/C=C2\CC3C4CC=C5C[C@@H](O)CC[C@]5(C)C4CC[C@]3(C)\C2=N\O)cc1OC (stereo not given in full) | > 100 | > 100 | > 100 | > 100 | > 100 | > 100 | 67.1 | 80.9 | > 100 | > 100 |
| O=C1C=C2CO[C@H]3OC[C@H](O)[C@@H]1[C@@H]23 | 44.8 | 66.8 | > 100 | > 100 | > 100 | 33.1 | 30 | > 100 | > 100 | > 100 |
| NS(=O)(=O)c1ccc(Nc2c3ccccc3nc3c(C(=O)NCCCN(CCO)CCO)cccc23)cc1 | 78.7 | 58.6 | > 100 | > 100 | 36.9 | 44.1 | 30.2 | > 100 | 45.1 | > 100 |
| CCCC(CC)c1c(O)c(O)c(C(CC)CCC)c(C(CC)CCC)c1C(CC)CCC (stereo not given) | > 10 | > 10 | > 10 | > 10 | > 10 | > 10 | > 10 | > 10 | > 10 | > 10 |
| [N-]=[N+]=NC1CC(n2cc(COCC(F)(F)F)c(=O)[nH]c2=O)OC1CO (stereo not given) | > 100 | > 100 | > 100 | > 100 | > 100 | > 100 | > 100 | > 100 | > 100 | > 100 |
| CC(NC1=NCCO1)c1cccc([N+](=O)[O-])c1 (stereo not given) | > 100 | > 100 | > 100 | > 100 | > 100 | > 100 | > 100 | > 100 | > 100 | > 100 |
| COCN1CCN=c2c1c1c3c(c4ccccc4n23)CCC1 | > 100 | > 100 | > 100 | > 100 | > 100 | > 100 | > 100 | > 100 | > 100 | > 100 |
| Cc1nccn1S(=O)(=O)c1ccc(Br)cc1Br | 47.4 | 98.3 | > 100 | 96.8 | > 100 | 86.9 | 33.4 | 93.1 | 39.7 | > 100 |
| Nc1ccc(-c2nc3cc(F)ccc3s2)cc1I | > 100 | > 100 | 42.4 | 43.9 | 23.7 | 33.2 | > 100 | > 56.6 | > 100 | 21.1 |
| C=CCN(c1cc(OCc2ccccc2)c(NC(C)=O)cc1[N+](=O)[O-])S(C)(=O)=O | > 100 | > 100 | 50.3 | 33.8 | > 100 | > 100 | > 100 | 60.4 | > 100 | > 100 |
| CCOC(=O)c1c2c(n(-c3ccc(OC)cc3)c1C)C(=O)C(=O)c1ccccc1-2 | 2.86 | > 100 | 2.76 | 4.09 | 5.36 | > 20.4 | 5.31 | 3.17 | 3.17 | 3.33 |
| C=C1C(=O)O[C@H]2C/C(C)=C/CC/C(C)=C/CC[C@@](C)(O)[C@@H](I)C[C@@H]12 | 12.9 | 5.4 | 5.74 | 20.8 | 27.2 | 14.4 | 24.9 | 32.8 | 24.8 | 23.6 |
| Cc1ccc(NC(=S)Nc2c(C)n(C)n(-c3ccccc3)c2=O)cc1 | > 100 | > 100 | > 100 | > 100 | > 100 | > 100 | > 100 | > 100 | > 100 | > 100 |
| O=C(Nc1nnc(-c2ccccc2)o1)C(SC(=S)N1CCOCC1)c1ccccc1 (stereo not given) | > 100 | > 100 | > 100 | 55.5 | 66.1 | 93.5 | > 100 | > 100 | > 100 | > 100 |
| O=C1CCC2(CC1CCSc1ccccc1)OCCO2 (stereo not given) | > 100 | > 100 | > 100 | > 100 | > 100 | > 100 | > 100 | > 100 | > 100 | > 100 |
| C[C@H](CC[C@@H](O)C(C)(C)O)[C@H]1CC[C@@]2(C)[C@@H]3CC=C4[C@@H](CC[C@H](O)C4(C)C)[C@]3(C)C(=O)C[C@]12C | 29.8 | > 50 | > 50 | > 50 | > 50 | > 50 | 31.8 | > 50 | > 50 | > 50 |
| COC(=O)C1(NC(=O)C(CC(=O)OCc2ccccc2)NC(=O)OC(C)(C)C)CC1 (stereo not given) (Boc-[ξD](OBn)-[Ac3c]-OMe) | > 100 | > 100 | > 100 | > 100 | > 100 | > 100 | > 100 | > 100 | > 100 | > 100 |
| COC(=O)/C=C\C(C#N)(C#N)N=Cc1ccc(C)s1 | > 32.5 | 1.64 | 9.97 | 15.3 | 40.7 | 2.01 | 2.93 | 31.8 | 3.5 | 3.8 |
| N=S(=O)(c1ccccc1)c1ccccc1[N+](=O)[O-] (stereo not given) | > 100 | > 100 | > 100 | > 100 | > 100 | > 100 | > 100 | > 100 | > 100 | > 100 |
| CC1CCc2c(sc3ncnc(N/N=C/c4ccc(Cl)c(Cl)c4)c23)C1 (stereo not given) | > 100 | 41.6 | 58 | 89.8 | 42.2 | 21 | 71.6 | 43.2 | 30.2 | > 100 |
| O=C(NCCCCNCCCNC(=O)c1ccccc1)c1ccccc1 | > 100 | > 100 | > 100 | > 100 | > 100 | > 100 | > 100 | > 100 | > 100 | > 100 |
| O=C(OCCN1CCCCC1)C(c1ccccc1)C1(O)CCSCC1 (stereo not given) | > 100 | > 100 | > 100 | > 100 | > 100 | > 100 | > 100 | > 100 | > 100 | > 100 |
| COc1ccc2c(c1)nc1n2C(N)=Nc2ccccc2S1 | > 82.2 | > 23.3 | > 82.1 | > 100 | > 100 | > 100 | > 100 | > 100 | > 80.6 | > 100 |
| Cc1cc(Nc2ccc(N=Nc3ccc(O)c4ncccc34)cc2)nc(C)n1 | 32.5 | 7.22 | 48.3 | > 79.3 | 38 | 55 | 40.4 | > 80.4 | 36.1 | 50.2 |
| CC(C)(C)n1c(=O)n(C(=O)C(Cl)(Cl)Cl)n(C(=O)C(Cl)(Cl)Cl)c1=O | > 100 | > 100 | > 100 | > 100 | > 100 | > 100 | > 100 | > 100 | > 100 | > 100 |
| CO/C(=N\N=C\c1ccc(Cl)cc1Cl)c1ccncc1 | > 10 | > 10 | > 10 | > 10 | > 10 | > 10 | > 10 | > 10 | > 10 | > 10 |
| COc1ccc(-c2nc(-c3cc4ccccc4oc3=O)cs2)cc1 | > 100 | > 100 | 56.3 | > 100 | > 100 | > 100 | > 100 | > 100 | > 100 | > 100 |
| O=C(c1ccccc1)c1c(C(F)(F)F)n([O-])c2cc(Cl)c(Cl)cc2[n+]1=O | 1.15 | 3.7 | 20.9 | 6.96 | 4.53 | 1.08 | 18.8 | 7.31 | 3.2 | 2.56 |
| O=C(/C=C/c1ccc(-c2ccccc2)cc1)NCc1ccc(C(=O)NCCc2c[nH]c3ccccc23)cc1 | > 100 | 32.1 | > 100 | 94.8 | > 100 | > 100 | > 100 | 38.6 | > 100 | 86.8 |
